Reference: publication PMC8279492, “Quinolinonyl Non-Diketo Acid Derivatives as Inhibitors of HIV-1 Ribonuclease H and Polymerase Functions of Reverse Transcriptase” (Journal of Medicinal Chemistry, 2021)
Read-outs that look alike come from different tables or passages of the source.

Experiments:
HIV-1 replication = HIV-1 replication in HeLa-CD4-LTR-β-gal reporter cells; format: cell-based
Protocol: (§1) HIV-1 replication was monitored using HeLa-CD4-LTR-β-gal reporter cells as previously described.[69] Briefly, β-galactosidase activity was monitored 24 h post infection using a replication-competent HIV produced in-house (H9-laï coculture) and a serial dilution of molecules or an equivalent volume of DMSO. In parallel, compounds’ toxicity was determined at 24 h in the same cell line using CellTiter 96 AQueous One Solution Cell Proliferation Assay (Promega, France).

[1] = Compounds' toxicity, CellTiter 96 AQueous One Solution Cell Proliferation Assay; format: cell-based; settings: human
Protocol: as §1

HIV-1 IN = HIV-1 IN (Human immunodeficiency virus type 1 group M subtype B, UniProt P12497); assay: biochemical
Protocol: His-tagged NL4-3 IN was expressed from a pET15b plasmid in the E. coli BL21 pLys strain. Recombinant protein was purified as previously described[67] following a batch preparation on Ni-NTA beads (Qiagen, Paris, France).
Both oligonucleotides were purchased from Integrated DNA Technologies, Inc. (Coralville, IA), and the gel was purified in-house. ST reactions were performed by adding molecules or an equivalent volume of 100% dimethyl sulfoxide (DMSO, used as the drug solvent) to a mixture of 20 nM duplex DNA substrate and 400 nM IN in 50 mM MOPS pH 7.2, 7.5 mM MgCl2, and 14 mM 2-mercaptoethanol. Mixtures were incubated at 37 °C for 2 h, and the reaction was quenched by addition of an equal volume of loading buffer [formamide containing 1% sodium dodecyl sulfate (SDS), 0.25% bromophenol blue, and xylene cyanol]. […] Dried gels were visualized using a FLA5000 (Fuji Photo Film, Tokyo, Japan). Densitometric analyses were performed using ImageQuant 5.1 software from GE Healthcare.

[2] = molecular target: T1, HIV-1 RT-associated RNase H activity (Human immunodeficiency virus type 1 group M subtype B, UniProt P03366); assay: biochemical; format: biochemical
T1 construct: His-tagged p66/p51 HIV-1 RT group M subtype B; His; made in house; host or cells: Escherichia coli M15
Protocol: (11) and β-thujaplicinol (BTP) used as positive controls.
(§2) His-tagged p66/p51 HIV-1 RT group M subtype B coded in a p6HRT-prot plasmid was expressed in the Escherichia coli strain M15.[65] Heterodimeric RTs were expressed essentially and purified as described.[66]
(§3) The HIV-1 RT-associated RNase H activity was measured as described.[68] Briefly, the reaction was carried out in a black 96-well plate in a total volume of 100 μL. […] Experiments were performed in duplicate and replicated at least two times. Data were analyzed as described.[36]

HIV-1 RT-RDDP activity = molecular target: T2, HIV-1 RT-RDDP activity (Human immunodeficiency virus type 1 group M subtype B, UniProt P03366); assay: Polymerase assay (RNA-dependent DNA polymerase); format: biochemical
T2 construct: His-tagged p66/p51 HIV-1 RT group M subtype B; His; made in house; host or cells: Escherichia coli M15
Protocol: as §2
The HIV-1 RT-associated RNA-dependent DNA polymerase activity was measured as described.[65] Briefly, the reaction was carried out in a black 96-well plate in a total volume of 25 μL. Serial dilutions of compounds were added to the reaction mix containing 60 mM Tris HCl buffer pH 8.1, 8 mM MgCl2, 60 mM KCl, 13 mM DTT, 2.5 mM poly(A)-oligo(dT), and […].

K451A HIV-1 RT RNase H = molecular target: T3, K451A HIV-1 RT RNase H (Human immunodeficiency virus type 1 group M subtype B, UniProt P03366, K1050A); assay: RNase H assay, point-mutant K451A RT; format: biochemical
T3 construct: Amino acid substitutions were introduced into the p66 HIV-1 RT subunit of a HIV-1 RT; His; made in house; host or cells: Escherichia coli M15
Protocol: (§4) An activity curve was performed for all of the enzymes (Figure S1), and a concentration was chosen in the linear dose-response range to perform the enzymatic-inhibition assays.
(§5) Amino acid substitutions were introduced into the p66 HIV-1 RT subunit of a HIV-1 RT using a QuikChange mutagenesis kit, following the manufacturer’s instructions (Agilent Technologies Inc., Santa Clara, CA).
as §3

N474A HIV-1 RT RNase H = molecular target: T4, N474A HIV-1 RT RNase H (Human immunodeficiency virus type 1 group M subtype B, UniProt P03366, N1073A); assay: RNase H assay, point-mutant N474A RT; format: biochemical
T4 construct: Amino acid substitutions were introduced into the p66 HIV-1 RT subunit of a HIV-1 RT; His; made in house; host or cells: Escherichia coli M15
Protocol: as §4, §5, §3

Y501A HIV-1 RT RNase H = molecular target: T5, Y501A HIV-1 RT RNase H (Human immunodeficiency virus type 1 group M subtype B, UniProt P03366, Y1100A); assay: RNase H assay, point-mutant Y501A RT; format: biochemical
T5 construct: Amino acid substitutions were introduced into the p66 HIV-1 RT subunit of a HIV-1 RT; His; made in house; host or cells: Escherichia coli M15
Protocol: as §4, §5, §3

R448A HIV-1 RT RNase H = molecular target: T6, R448A HIV-1 RT RNase H (Human immunodeficiency virus type 1 group M subtype B, UniProt P03366, R1047A); assay: RNase H assay, point-mutant R448A RT; format: biochemical
T6 construct: Amino acid substitutions were introduced into the p66 HIV-1 RT subunit of a HIV-1 RT; His; made in house; host or cells: Escherichia coli M15
Protocol: as §4, §5, §3

Q475A HIV-1 RT RNase H = molecular target: T7, Q475A HIV-1 RT RNase H (Human immunodeficiency virus type 1 group M subtype B, UniProt P03366, Q1074A); assay: RNase H assay, point-mutant Q475A RT; format: biochemical
T7 construct: Amino acid substitutions were introduced into the p66 HIV-1 RT subunit of a HIV-1 RT; His; made in house; host or cells: Escherichia coli M15
Protocol: as §4, §5, §3

W535A HIV-1 RT RNase H = molecular target: T8, W535A HIV-1 RT RNase H (Human immunodeficiency virus type 1 group M subtype B, UniProt P03366, W1134A); assay: RNase H assay, point-mutant W535A RT; format: biochemical
T8 construct: Amino acid substitutions were introduced into the p66 HIV-1 RT subunit of a HIV-1 RT; His; made in house; host or cells: Escherichia coli M15
Protocol: as §4, §5, §3

K540A HIV-1 RT RNase H = molecular target: T9, K540A HIV-1 RT RNase H (Human immunodeficiency virus type 1 group M subtype B, UniProt P03366, K1139A); assay: RNase H assay, point-mutant K540A RT; format: biochemical
T9 construct: Amino acid substitutions were introduced into the p66 HIV-1 RT subunit of a HIV-1 RT; His; made in house; host or cells: Escherichia coli M15
Protocol: as §4, §5, §3

IN = settings: supplement CSV, earlier compounds 1 and 2; ref 29−33; read-out: IN ST IC50; cited from earlier work
[3] = Human immunodeficiency virus 1, HeLa-CD4-LTR-β-gal cells, 24 h post infection, read-out: antiviral activity EC50
[4] = HeLa-CD4-LTR-β-gal cells, CC50 (cytotoxic concentration 50%), 24 h
[5] = HeLa-CD4-LTR-β-gal cells, supplement CSV, read-out: CC50
[6] = anti-RH activity (IC50 ± SD), HIV-1 RT-associated RNase H activity, dose-response curves, no preincubation
[7] = Human immunodeficiency virus 1, 24 h, read-out: antiviral activity EC50

| Compound | SI (selectivity index = CC50/EC50) (HIV-1 replication) | EC50 (HIV-1 replication; [3]) [µM] | CC50 at 24 h [1, 4] [µM] | CC50 at 24 h [1, 5] [µM] | IC50 (HIV-1 IN) [µM] | IC50 [2, 6] [µM] | IC50 (HIV-1 RT-RDDP activity) [µM] | further results |
| --- | --- | --- | --- | --- | --- | --- | --- | --- |
| CCOC(=O)c1cn(Cc2ccc(F)cc2)c2ccc(OCc3cccc(Cl)c3Cl)cc2c1=O [5m, Ethyl 6-((2,3-Dichlorobenzyl)oxy)-1-(4-fluorobenzyl)-4-oxo-1,4-dihydroquinoline-3-carboxylate] | 1.2 | 17.8 ± 2.3 | 21.6 ± 2.8 | 23.9 ± 4.5 | 0.05 ± 0.01 | 24 | 1.88 ± 0.04 | – |
| O=C(O)c1cn(Cc2ccc(F)cc2)c2ccc(OCc3ccc(OCc4ccccc4)cc3)cc2c1=O [4t, 6-((4-(Benzyloxy)benzyl)oxy)-1-(4-fluorobenzyl)-4-oxo-1,4-dihydroquinoline-3-carboxylic Acid] | >57.8 | – | – | – | > 100 | 7.48 ± 0.28 | 2.2 ± 0.1 | IC50 (K451A HIV-1 RT RNase H): 2.9 ± 1.3 µM; EC50 (HIV-1 replication; [7]): 1.73 ± 0.47 µM; IC50 (N474A HIV-1 RT RNase H): 1.16 ± 1.41 µM; CC50 at 24 h ([1]; HeLa-CD4-LTR-β-gal reporter cells, CC50 (cytotoxic concentration 50%), HeLa-CD4-LTR-β-gal cells, 24 h): > 100 µM; CC50 at 24 h ([1]; HeLa-CD4-LTR-β-gal reporter cells, supplement CSV, read-out: CC50): > 16 µM; IC50 (Y501A HIV-1 RT RNase H): > 100 µM; IC50 (R448A HIV-1 RT RNase H): 2.2 ± 1.3 µM; IC50 (Q475A HIV-1 RT RNase H): 15.6 ± 1.6 µM; IC50 ([2]; wt (RH IC50, uM), supplement CSV, mutagenesis study): 1.9 ± 0.4 µM; Fold increase in IC50 compared to wt RT, W535A (W535A HIV-1 RT RNase H): > 52.4 fold; IC50 (W535A HIV-1 RT RNase H): > 100 µM; W535A (Fold) (W535A HIV-1 RT RNase H; supplement CSV, vs wt): >52.4; IC50 (K540A HIV-1 RT RNase H): 2 ± 1.2 µM |
| O=C(O)c1cn(Cc2ccc(F)cc2)c2ccc(OCc3cccc(Cl)c3Cl)cc2c1=O [4m, 6-((2,3-Dichlorobenzyl)oxy)-1-(4-fluorobenzyl)-4-oxo-1,4-dihydroquinoline-3-carboxylic Acid] | >15 | 13.3 ± 4.5 | > 200 | > 50 | > 100 | 8.19 ± 0.05 | 5.6 ± 0.6 | – |
| O=C(O)c1cn(Cc2ccc(F)cc2)c2ccc(OCc3ccc(-c4ccccc4)cc3)cc2c1=O [4s, 6-([1,1′-Biphenyl]-4-ylmethoxy)-1-(4-fluorobenzyl)-4-oxo-1,4-dihydroquinoline-3-carboxylic Acid] | >40 | 2.5 ± 1.03 | > 100 | > 16 | > 250 | 7.47 ± 1.55 | 11.6 ± 5.5 | – |
| CCOC(=O)c1cn(Cc2ccc(F)cc2)c2ccc(OCc3ccc(Cl)c(Cl)c3)cc2c1=O [5n, Ethyl 6-((3,4-Dichlorobenzyl)oxy)-1-(4-fluorobenzyl)-4-oxo-1,4-dihydroquinoline-3-carboxylate] | 1.4 | 14.6 ± 3.1 | 20.6 ± 4.4 | – | 9.45 ± 0.55 | 37.2 ± 7.6 | 24.1 ± 8.6 | IC50 ([2]; RH IC50 (uM), supplement CSV): 37.2 ± 7.58 µM |
| CCOC(=O)/C(O)=C/C(=O)/C=C/c1cccn1Cc1ccc(F)cc1 [compound 1] | – | – | – | – | – | – | – | IC50 (IN): 90 µM |
| O=C(O)c1cn(Cc2ccc(F)cc2)c2ccc(OCc3ccc(Cl)c(Cl)c3)cc2c1=O [4n, 6-((3,4-Dichlorobenzyl)oxy)-1-(4-fluorobenzyl)-4-oxo-1,4-dihydroquinoline-3-carboxylic Acid] | >12.4 | 16.1 ± 5.5 | > 200 | > 50 | 3.25 ± 0.85 | 29.5 ± 0.5 | 2 ± 0.8 | IC50 ([2]; RH IC50 (uM), supplement CSV): 29.5 ± 0.55 µM |
| CCOC(=O)/C=C/C(=O)/C=C/c1cccn1Cc1ccccc1Cl [compound 11, reference compound] | – | – | 68 ± 10 | – | > 100 | 7.5 ± 1.32 | – | EC50 (HIV-1 replication; [7]): 2.9 ± 0.5 µM |
| O=C(O)c1cn(Cc2ccc(F)cc2)c2ccc(OCc3ccc4c(c3)OCO4)cc2c1=O [4q, 6-(Benzo[d][1,3]dioxol-5-ylmethoxy)-1-(4-fluorobenzyl)-4-oxo-1,4-dihydroquinoline-3-carboxylic Acid] | >17.7 | 11.3 ± 3.5 | > 200 | > 50 | > 100 | 13.5 | 5.1 ± 1.8 | – |
| O=C(/C=C/c1ccc2c(c1)c(=O)c(C(=O)O)cn2Cc1ccc(F)cc1)c1ccccc1 [4k, (E)-1-(4-Fluorobenzyl)-4-oxo-6-(3-oxo-3-phenylprop-1-en-1-yl)-1,4-dihydroquinoline-3 carboxylic Acid] | 3.1 | 5.4 ± 3.1 | 17 ± 4 | – | 3.38 ± 0.42 | 5.9 ± 0.6 | > 100 | – |
| CC(=O)c1ccc2c(c1)c(=O)c(C(=O)O)cn2Cc1ccc(F)cc1 [4d, 6-Acetyl-1-(4-fluorobenzyl)-4-oxo-1,4-dihydroquinoline-3-carboxylic Acid] | – | > 50 | > 200 | > 50 | > 100 | 16.3 ± 1.42 | – | – |
| O=C(O)c1cn(Cc2ccc(F)cc2)c2ccc(OCc3ccccc3)cc2c1=O [4l, 6-(Benzyloxy)-1-(4-fluorobenzyl)-4-oxo-1,4-dihydroquinoline-3-carboxylic Acid] | >8.6 | 11.7 ± 2.5 | > 100 | – | 0.41 ± 0.03 | 34 ± 0.1 | 38.5 ± 7.1 | EC50 (HIV-1 replication; Human immunodeficiency virus 1, supplement CSV, read-out: EC50): 11.7 ± 2.15 µM |
